Laboratory results from publication PMC6981581, “N-(2-Arylmethylthio-4-Chloro-5-Methylbenzenesulfonyl)amide Derivatives as Potential Antimicrobial Agents—Synthesis and Biological Studies” (International Journal of Molecular Sciences, 2019).
In brackets after ≈: the same amount, converted by molar mass. Several values for one entry are separate records, joined by “and”; a condition that tells them apart may be missing. Identical values can stand only once. Like-named read-outs stand apart in the source and are kept apart here.

Columns and labels:
[1] = system: Gram-positive reference strains; assay: Broth dilution MIC/MBC, summary over Gram-positive reference strains; assay type: cell-based
Procedure: […]. The tests were carried out using a serial dilution method, allowing the determination of MIC (minimal concentration inhibiting bacterial growth), MBC (minimal bactericidal concentration), and MFC (minimal fungicidal concentration) values.
(§1) Antimicrobial activity was tested using the following reference strains: Staphylococcus aureus ATCC 6538 (MSSA), Staphylococcus aureus ATCC 43300 (MRSA), Staphylococcus epidermidis PCM 2118, Escherichia coli ATCC 11229, Pseudomonas aeruginosa ATCC 15442, Proteus vulgaris NCTC 4635, Enterococcus faecalis ATCC 11420, and Candida albicans ATCC 10231.
(§2) A broth dilution method was used to determine minimal inhibitory concentration (MIC) for tested compounds as recommended by Clinical Laboratory Standards Institute (CLSI) guidelines. Investigated compounds were diluted in Mueller Hinton Broth 2 (Sigma-Aldrich Co., St. Louis, MO, USA) in polypropylene 96-well plates and initial inoculum 5 × 10^5 cfu/mL were incubated at 37 °C for 18 h. MIC was taken as the lowest drug concentration at which an observable growth was inhibited. […] The loopful (10 µL) of the tested sample was transferred to Tryptic Soy Agar (TSA, Becton-Dickinson, Franklin Lakes, NJ, USA) and incubated at 37 °C for 48 h. […] Drug Solutions were made fresh on the day of the assay. All experiments were performed in triplicate.

[2] = system: S.aureus 57 (MSSA); assay: Broth dilution MIC/MBC, clinical MSSA isolate; assay type: cell-based; conditions: Staphylococcus aureus, MSSA
Text: (§3) […]. Both MRSA and MSSA strains were derived from various human infections.
(§4) […]. Five methicillin-resistant S. aureus strains were isolated from nose (n = 1), bronchoalveolar lavage (n = 1), sputum (n = 1), wound (n = 1), and blood (n = 1); five methicillin-susceptible S. aureus strains were isolated from throat (n = 1), bronchoalveolar lavage (n = 1), sputum (n = 1), abscess (n = 1), and blood (n = 1).
(§5) The identity of S. aureus isolates was confirmed with conventional methods and with Pastorex Staph-Plus latex agglutination kit (Bio-Rad, Marnes-la-Coquette, France) and verified applying the polymerase chain reaction (PCR) of S. aureus-specific region of the thermonuclease gene, nuc. Resistance to methicillin was first verified using cefoxitin disk (30 µg), and then, identified based on the presence of mecA gene. S. aureus ATCC®25923 (methicillin-susceptible) and S. aureus ATCC®43300 (MDR) were applied as the reference strains. Both the reference and clinical strains were stored at −80 °C, in Tryptic Soy Broth (TSB, Becton-Dickinson, Franklin Lakes, NJ, USA) supplemented with 15% glycerol.
as §2

[3] = system: S.aureus 56 (MSSA); assay: Broth dilution MIC/MBC, clinical MSSA isolate; assay type: cell-based; conditions: Staphylococcus aureus, MSSA
Text: as §3, §4, §5, §2

[4] = system: S.aureus 59 (MSSA); assay: Broth dilution MIC/MBC, clinical MSSA isolate; assay type: cell-based; conditions: Staphylococcus aureus, MSSA
Text: as §3, §4, §5, §2

[5] = system: S.aureus 55 (MSSA); assay: Broth dilution MIC/MBC, clinical MSSA isolate; assay type: cell-based; conditions: Staphylococcus aureus, MSSA
Text: as §3, §4, §5, §2

[6] = system: S.aureus 58 (MSSA); assay: Broth dilution MIC/MBC, clinical MSSA isolate; assay type: cell-based; conditions: Staphylococcus aureus, MSSA
Text: as §3, §4, §5, §2

[7] = system: Pseudomonas aeruginosa ATCC 15442; assay: Broth dilution MIC/MBC, reference strain; assay type: cell-based; conditions: Pseudomonas aeruginosa, ATCC15442
Procedure: (§6) The tests were carried out using a serial dilution method, allowing the determination of MIC (minimal concentration inhibiting bacterial growth), MBC (minimal bactericidal concentration), and MFC (minimal fungicidal concentration) values.
as §1, §2

[8] = system: Proteus vulgaris NCTC 4635; assay: Broth dilution MIC/MBC, reference strain; assay type: cell-based; conditions: Proteus vulgaris, NCTC4635
Procedure: as §6, §1, §2

[9] = system: Staphylococcus aureus ATCC 43300 (MRSA); assay: Broth dilution MIC/MBC, reference strain; assay type: cell-based; conditions: Staphylococcus aureus
Procedure: as §6, §1, §2

[10] = system: Staphylococcus epidermidis PCM 2118; assay: Broth dilution MIC/MBC, reference strain; assay type: cell-based
Procedure: as §6, §1, §2

[11] = system: Enterococcus faecalis ATCC 11420; assay: Broth dilution MIC/MBC, reference strain; assay type: cell-based; conditions: Enterococcus faecalis, ATCC11420
Procedure: as §6, §1, §2

[12] = system: Staphylococcus aureus ATCC 6538 (MSSA); assay: Broth dilution MIC/MBC, reference strain; assay type: cell-based; conditions: Staphylococcus aureus
Procedure: as §6, §1, §2

[13] = system: Escherichia coli ATCC 11229; assay: Broth dilution MIC/MBC, reference strain; assay type: cell-based; conditions: Escherichia coli, ATCC11229
Procedure: as §6, §1, §2

[14] = system: HaCaT cell line (human keratinocyte); assay: MTT cell viability assay; assay type: cell-based; conditions: 72 h, read-out: IC50 HaCaT
[15] = system: clinical isolates of methicillin-resistant S. aureus (50–54) and methicillin-sensitive S. aureus (55–59); assay: Broth dilution MIC/MBC, summary over clinical S. aureus isolates; assay type: cell-based, Staphylococcus aureus
Text: as §3, §4, §5, §2

[16] = system: Candida albicans ATCC 10231; assay: Broth dilution MIC/MFC, reference fungal strain; assay type: cell-based; conditions: Candida albicans, ATCC10231
Procedure: as §6, §1, §2

[17] = system: MRSA 51 biofilm; assay: Biofilm inhibition assay (crystal violet); assay type: cell-based, Staphylococcus aureus
Procedure: (§7) For many decades, S. aureus has been identified as the most common etiologic agent of device related infections, associated with biofilm formation. These infections are hard to cure because the specific structure of biofilm confers resistance to the host immune response and to the action of antibiotics.
(§8) Then, 100 µL bacterial suspension prepared from fresh overnight culture by diluting with TSB to obtain the initial inoculum 2 × 10^6 CFU/mL was added. The plates were incubated for 24 h at 37 °C. After the incubation, the wells were discarded and were gently rinsed three times with PBS to remove planktonic staphylococcal cells. Then, contents of the wells were discarded and the biofilm was fixed with 200 µL methanol for 20 min and dried at room temperature for 30 min. The biofilm was stained by adding 200 µL 1.8% crystal violet solution for 15 min. After staining, the plates were rinsed with water and 200 µL bleaching solution (30% ethanol, 30% glacial acetic acid, 40% water) added for 15 min to dissolve the remaining crystal violet. A microplater reader was used to measure the absorbance of the adherent biofilm at 570 nm (OD570). […] The negative control included only the growth medium.

[18] = system: MSSA 59 biofilm; assay: Biofilm inhibition assay (crystal violet); assay type: cell-based, Staphylococcus aureus; conditions: MSSA 59, 4 × MIC
Procedure: as §7, §8

[19] = system: MRSA 52 biofilm; assay: Biofilm inhibition assay (crystal violet); assay type: cell-based, Staphylococcus aureus; conditions: MRSA 52, 4 × MIC
Procedure: as §7, §8

[20] = system: MSSA 58 biofilm; assay: Biofilm inhibition assay (crystal violet); assay type: cell-based, Staphylococcus aureus
Procedure: as §7, §8

[21] = system: S.aureus 52 (MRSA); assay: Broth dilution MIC/MBC, clinical MRSA isolate; assay type: cell-based; conditions: Staphylococcus aureus, MRSA
Text: as §3, §4, §5, §2

[22] = system: S.aureus 54 (MRSA); assay: Broth dilution MIC/MBC, clinical MRSA isolate; assay type: cell-based; conditions: Staphylococcus aureus, MRSA
Text: as §3, §4, §5, §2

[23] = system: S.aureus 51 (MRSA); assay: Broth dilution MIC/MBC, clinical MRSA isolate; assay type: cell-based; conditions: Staphylococcus aureus, MRSA
Text: as §3, §4, §5, §2

[24] = system: S.aureus 50 (MRSA); assay: Broth dilution MIC/MBC, clinical MRSA isolate; assay type: cell-based; conditions: Staphylococcus aureus, MRSA
Text: as §3, §4, §5, §2

[25] = system: S.aureus 53 (MRSA); assay: Broth dilution MIC/MBC, clinical MRSA isolate; assay type: cell-based; conditions: Staphylococcus aureus, MRSA
Text: as §3, §4, §5, §2

Cc1cc(S(=O)(=O)NC(=O)C=Cc2ccccc2)c(SCc2cccc3ccccc23)cc1Cl [Compound 16, N-[4-Chloro-5-methyl-2-(naphthalen-1-ylmethylthio)benzenesulfonyl]cinnamamide] showed an MIC [1] of 4 to 8 µg/mL (≈ 7.87 to 15.7 µM), an MBC [2] greater than 128 µg/mL and an MIC [2] of 4 µg/mL (≈ 7.87 µM). The MBC [3] was greater than 128 µg/mL, the MIC [3] was 4 µg/mL (≈ 7.87 µM) and the MBC [4] was greater than 128 µg/mL. It also gave an MIC [4] of 4 µg/mL (≈ 7.87 µM), an MBC [5] greater than 128 µg/mL and an MIC [5] of 4 µg/mL (≈ 7.87 µM). The MBC [6] was greater than 128 µg/mL, the MIC [6] was 8 µg/mL (≈ 15.7 µM) and the MBC [7] was greater than 128 µg/mL. For the same compound, the MIC [7] was 128 µg/mL (≈ 252 µM), the MBC [8] was greater than 128 µg/mL and the MIC [8] was 128 µg/mL (≈ 252 µM). For the same compound, the MBC [9] was greater than 128 µg/mL, the MIC [9] was 4 µg/mL (≈ 7.87 µM) and the MBC ([10]; S. epidermidis PCM 2118) was 4 µg/mL (≈ 7.87 µM). The MIC ([10]; Staphylococcus epidermidis, PCM2118) was 4 µg/mL (≈ 7.87 µM), the MBC ([10]; Staphylococcus epidermidis, PCM2118, S. epidermidis PCM 2118, read-out: MBC) was 4 to 16 µg/mL (≈ 7.87 to 31.5 µM) and the MBC [11] was greater than 128 µg/mL. For the same compound, the MIC [11] was 8 µg/mL (≈ 15.7 µM), the MBC [12] was greater than 128 µg/mL and the MIC [12] was 4 µg/mL (≈ 7.87 µM). The MBC [13] was greater than 128 µg/mL, the MIC [13] was 128 µg/mL (≈ 252 µM) and the IC50 [14] was 19 µg/mL and 38 µM. It also gave an MBC ([15]; Staphylococcus aureus) greater than 128 µg/mL, an MIC ([15]; Staphylococcus aureus) of 4 to 8 µg/mL (≈ 7.87 to 15.7 µM) and an MIC ([15]; summary over ten clinical MRSA and MSSA isolates (Table 4)) of 4 to 8 µg/mL. The MFC [16] was 128 µg/mL (≈ 252 µM), the MIC [16] was 64 µg/mL (≈ 126 µM) and the “inhibition of biofilm formation” value ([17]; MRSA 51, 4 × MIC) was 87–90%. The “inhibition of biofilm formation” value ([17]; MRSA 51, concentration equal to the MIC) was 35%, the “inhibition of biofilm formation” value [18] was 87–90% and the “inhibition of biofilm formation” value [19] was 87–90%. For the same compound, the “inhibition of biofilm formation” value ([20]; MSSA 58, 2 × MIC) was 86%, the “inhibition of biofilm formation” value ([20]; MSSA 58, concentration equal to the MIC) was 44% and the MBC [21] was greater than 128 µg/mL. The MIC [21] was 4 µg/mL (≈ 7.87 µM), the MBC [22] was greater than 128 µg/mL and the MIC [22] was 8 µg/mL (≈ 15.7 µM). It also gave an MBC [23] greater than 128 µg/mL, an MIC [23] of 4 µg/mL (≈ 7.87 µM) and an MBC [24] greater than 128 µg/mL. The MIC [24] was 4 µg/mL (≈ 7.87 µM), the MBC [25] was greater than 128 µg/mL and the MIC [25] was 8 µg/mL (≈ 15.7 µM).
